Patent US10670605B2, “Cysteine reactive probes and uses thereof” (The Scripps Research Institute, priority 2015, dated 2020)
“And” between values parts separate entries of the source, which are not always exact repeats. Equal entries are not always repeated.

Columns and labels:
Assay in all cases: Competitive isoTOP-ABPP, cell lysates;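 on isoTOP-ABPP reactivity profile ratio, P68036 C86: Heavy/light ratio DMSO over fragment-treated so higher means more cysteine engagement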
Format in all cases: binding
XPO1 C34 (O14980) = XPO1 C34 (O14980) (Homo sapiens, UniProt O14980)
ZNF217 C286 (O75362) = ZNF217 C286 (O75362) (Homo sapiens, UniProt O75362); details: for isoTOP-ABPP reactivity ratio, O75362_C286 / isoTOP-ABPP reactivity profile ratio, O75362_C286: 500 μm
UBE2L3 C86 (P68036) = UBE2L3 C86 (P68036) (Homo sapiens, UniProt P68036); details: for isoTOP-ABPP ratio (reactivity profile), P68036_C86: 500 μm in-vitro ramos_231; for isoTOP-ABPP reactivity ratio, P68036_C86 / isoTOP-ABPP reactivity profile ratio, P68036_C86: 500 μm;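 on isoTOP-ABPP reactivity profile ratio, P68036 C86: Heavy/light ratio DMSO over fragment-treated so higher means more cysteine engagement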
IDH2 C308 (P48735) = target: T1, IDH2 C308 (P48735) (Homo sapiens, UniProt P48735)
T1 sequence (P48735 40-452): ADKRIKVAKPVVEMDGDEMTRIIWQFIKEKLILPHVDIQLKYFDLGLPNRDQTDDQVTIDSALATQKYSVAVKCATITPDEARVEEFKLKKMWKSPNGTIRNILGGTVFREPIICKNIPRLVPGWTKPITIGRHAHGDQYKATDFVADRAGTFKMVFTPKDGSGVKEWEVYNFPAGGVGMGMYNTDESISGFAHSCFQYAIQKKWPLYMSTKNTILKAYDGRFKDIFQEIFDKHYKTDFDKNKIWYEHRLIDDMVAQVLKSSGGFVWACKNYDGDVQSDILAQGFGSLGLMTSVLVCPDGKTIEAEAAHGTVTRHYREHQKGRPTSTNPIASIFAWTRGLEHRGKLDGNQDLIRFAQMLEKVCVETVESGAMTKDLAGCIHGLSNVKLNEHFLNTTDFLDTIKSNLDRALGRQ

PCK2 C306 (Q16822) = target: T2, PCK2 C306 (Q16822) (Homo sapiens, UniProt Q16822)
T2 sequence (Q16822 33-640): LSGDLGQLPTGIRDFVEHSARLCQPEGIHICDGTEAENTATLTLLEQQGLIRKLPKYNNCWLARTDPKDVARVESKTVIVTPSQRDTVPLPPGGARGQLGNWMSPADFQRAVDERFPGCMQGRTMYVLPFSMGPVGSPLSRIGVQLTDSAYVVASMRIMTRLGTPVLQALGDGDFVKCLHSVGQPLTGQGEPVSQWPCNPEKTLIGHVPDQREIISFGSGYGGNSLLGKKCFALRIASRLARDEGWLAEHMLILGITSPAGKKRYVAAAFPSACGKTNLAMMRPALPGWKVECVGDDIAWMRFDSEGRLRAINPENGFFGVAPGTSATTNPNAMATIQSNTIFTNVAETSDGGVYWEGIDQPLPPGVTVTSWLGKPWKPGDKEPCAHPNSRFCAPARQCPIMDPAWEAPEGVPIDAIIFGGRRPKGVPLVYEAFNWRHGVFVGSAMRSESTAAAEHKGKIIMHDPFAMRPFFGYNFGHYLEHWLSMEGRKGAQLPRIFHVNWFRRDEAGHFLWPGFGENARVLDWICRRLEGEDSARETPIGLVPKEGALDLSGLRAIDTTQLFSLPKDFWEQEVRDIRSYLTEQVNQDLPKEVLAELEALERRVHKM

USP22 C171 (Q9UPT9) = target: T3, USP22 C171 (Q9UPT9) (Homo sapiens, UniProt Q9UPT9)
T3 sequence (Q9UPT9 1-525): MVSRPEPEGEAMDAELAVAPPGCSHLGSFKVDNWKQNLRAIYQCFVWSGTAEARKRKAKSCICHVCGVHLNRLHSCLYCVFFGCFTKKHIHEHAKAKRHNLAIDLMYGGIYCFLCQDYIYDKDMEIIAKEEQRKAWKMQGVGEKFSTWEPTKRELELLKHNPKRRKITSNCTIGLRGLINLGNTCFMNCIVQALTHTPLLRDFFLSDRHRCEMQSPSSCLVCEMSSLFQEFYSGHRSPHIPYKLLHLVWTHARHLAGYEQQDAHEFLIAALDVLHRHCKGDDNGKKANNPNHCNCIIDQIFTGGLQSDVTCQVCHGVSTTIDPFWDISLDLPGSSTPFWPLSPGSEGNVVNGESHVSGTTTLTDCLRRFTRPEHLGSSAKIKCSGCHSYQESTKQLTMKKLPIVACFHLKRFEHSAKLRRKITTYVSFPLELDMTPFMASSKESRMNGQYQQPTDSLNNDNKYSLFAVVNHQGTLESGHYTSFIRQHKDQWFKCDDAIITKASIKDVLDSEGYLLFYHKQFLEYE

For `CC(Cl)C(=O)Nc1cc(C(F)(F)F)cc(C(F)(F)F)c1` (stereo not shown) [compound 25], the “isoTOP-ABPP ratio (reactivity profile), O14980_C34” value (“isoTOP-ABPP ratio … O14980_C34” for short) (XPO1 C34 (O14980); 500 μm in-vitro ramos_231) was 0.9, the “isoTOP-ABPP ratio (reactivity profile), O75362_C286” value (“isoTOP-ABPP ratio … O75362_C286” below) (ZNF217 C286 (O75362); 500 μm in-vitro ramos_231) was 20.0 and the “isoTOP-ABPP ratio (reactivity profile), P68036_C86” value (from here on “isoTOP-ABPP ratio … P68036_C86”) (UBE2L3 C86 (P68036)) was 1.5. For the same compound, the “isoTOP-ABPP ratio (reactivity profile), P48735_C308” value (shortened to “isoTOP-ABPP ratio … P48735_C308”) (IDH2 C308 (P48735); 500 μm in-vitro ramos_231) was 14.5, the “isoTOP-ABPP ratio (reactivity profile), Q16822_C306” value (“isoTOP-ABPP ratio … Q16822_C306” below) (PCK2 C306 (Q16822); 500 μm in-vitro ramos_231) was 0.8 and the “isoTOP-ABPP ratio (reactivity profile), Q9UPT9_C171” value (“isoTOP-ABPP ratio … Q9UPT9_C171” for short) (USP22 C171 (Q9UPT9); 500 μm in-vitro ramos_231) was 1.1.

In the case of `CC(C)CCOCCNC(=O)CCl` [compound 27], the “isoTOP-ABPP ratio … O14980_C34” value (XPO1 C34 (O14980); 500 μm in-vitro ramos) is reported as 1.0, the “isoTOP-ABPP ratio … O14980_C34” value (XPO1 C34 (O14980); 500 μm in-vitro ramos_231) is reported as 0.9 and 1.0 and the “isoTOP-ABPP ratio … O75362_C286” value (ZNF217 C286 (O75362); 500 μm in-vitro ramos) is reported as 1.0. For the same compound, the “isoTOP-ABPP ratio … P68036_C86” value (UBE2L3 C86 (P68036)) was 1.2 and 0.9, the “isoTOP-ABPP ratio … P48735_C308” value (IDH2 C308 (P48735); 500 μm in-vitro ramos_231) was 1.9 and 1.0 and the “isoTOP-ABPP ratio … Q16822_C306” value (PCK2 C306 (Q16822); 500 μm in-vitro ramos) was 1.1. The “isoTOP-ABPP ratio … Q16822_C306” value (PCK2 C306 (Q16822); 500 μm in-vitro ramos_231) was 1.4 and 1.5 and the “isoTOP-ABPP ratio … Q9UPT9_C171” value (USP22 C171 (Q9UPT9); 500 μm in-vitro ramos) was 1.2.

With `COc1ccccc1OCCNC(=O)CCl` [compound 28] the “isoTOP-ABPP ratio … O14980_C34” value (XPO1 C34 (O14980); 500 μm in-vitro ramos) was 0.9, the “isoTOP-ABPP ratio … O14980_C34” value (XPO1 C34 (O14980); 500 μm in-vitro ramos_231) was 0.8 and the “isoTOP-ABPP ratio … O75362_C286” value (ZNF217 C286 (O75362); 500 μm in-vitro ramos) was 1.0. For the same compound, the “isoTOP-ABPP ratio … O75362_C286” value (ZNF217 C286 (O75362); 500 μm in-vitro ramos_231) was 1.0, the “isoTOP-ABPP ratio … P68036_C86” value (UBE2L3 C86 (P68036)) was 1.4 and the “isoTOP-ABPP ratio … P48735_C308” value (IDH2 C308 (P48735); 500 μm in-vitro ramos_231) was 0.9. For the same compound, the “isoTOP-ABPP ratio … Q16822_C306” value (PCK2 C306 (Q16822); 500 μm in-vitro ramos_231) was 1.1 and the “isoTOP-ABPP ratio … Q9UPT9_C171” value (USP22 C171 (Q9UPT9); 500 μm in-vitro ramos) was 1.3.

With `CCN(CC)c1ccc(S(N)(=O)=O)cc1NC(=O)CCl` [compound 30] the “isoTOP-ABPP ratio … O14980_C34” value (XPO1 C34 (O14980); 500 μm in-vitro ramos) was 0.7, the “isoTOP-ABPP reactivity ratio, O14980_C34” value (XPO1 C34 (O14980); 500 μm, in-vitro_ramos) was 1.1 and the “isoTOP-ABPP reactivity ratio, O75362_C286” value (ZNF217 C286 (O75362); in-vitro_ramos) was 2.1. For the same compound, the “isoTOP-ABPP reactivity ratio, P68036_C86” value (UBE2L3 C86 (P68036); in-vitro_ramos) was 1.5, the “isoTOP-ABPP ratio … P48735_C308” value (IDH2 C308 (P48735); 500 μm in-vitro ramos) was 0.7 and the “isoTOP-ABPP ratio … Q16822_C306” value (PCK2 C306 (Q16822); 500 μm in-vitro ramos) was 1.2. The “isoTOP-ABPP reactivity ratio, Q16822_C306” value (PCK2 C306 (Q16822); 500 μm, in-vitro_ramos) was 1.1 and the “isoTOP-ABPP reactivity ratio, Q9UPT9_C171” value (USP22 C171 (Q9UPT9); 500 μm, in-vitro_ramos) was 2.3.

For `C=CC(=O)N(Cc1cccnc1)c1cc(C(F)(F)F)cc(C(F)(F)F)c1` [compound 31], the “isoTOP-ABPP reactivity ratio, O14980_C34” value (XPO1 C34 (O14980); 500 μm, in-vitro_ramos) was 0.8, the “isoTOP-ABPP reactivity ratio, O14980_C34” value (XPO1 C34 (O14980); 500 μm, in-vitro_ramos_231) was 1.0 and the “isoTOP-ABPP reactivity ratio, P68036_C86” value (UBE2L3 C86 (P68036); in-vitro_ramos) was 1.3. For the same compound, the “isoTOP-ABPP reactivity ratio, P68036_C86” value (UBE2L3 C86 (P68036); in-vitro_ramos_231) was 1.7, the “isoTOP-ABPP reactivity ratio, P48735_C308” value (IDH2 C308 (P48735); 500 μm, in-vitro_ramos) was 1.1 and the “isoTOP-ABPP reactivity ratio, P48735_C308” value (IDH2 C308 (P48735); 500 μm, in-vitro_ramos_231) was 1.3. The “isoTOP-ABPP reactivity ratio, Q16822_C306” value (PCK2 C306 (Q16822); 500 μm, in-vitro_ramos) was 1.2, the “isoTOP-ABPP reactivity ratio, Q16822_C306” value (PCK2 C306 (Q16822); 500 μm, in-vitro_ramos_231) was 1.9 and the “isoTOP-ABPP reactivity ratio, Q9UPT9_C171” value (USP22 C171 (Q9UPT9); 500 μm, in-vitro_ramos_231) was 2.1.

`C=CC(=O)Nc1cc(F)c(N2CCN(C(=O)OC(C)(C)C)CC2)c(F)c1` [compound 38] was tested, and the “isoTOP-ABPP reactivity ratio, O14980_C34” value (XPO1 C34 (O14980); 500 μm, in-vitro_ramos) was 1.0, the “isoTOP-ABPP reactivity ratio, O14980_C34” value (XPO1 C34 (O14980); 500 μm, in-vitro_ramos_231) was 1.0 and the “isoTOP-ABPP reactivity ratio, O75362_C286” value (ZNF217 C286 (O75362); in-vitro_ramos) was 1.2. The “isoTOP-ABPP reactivity ratio, O75362_C286” value (ZNF217 C286 (O75362); in-vitro_ramos_231) was 0.9, the “isoTOP-ABPP reactivity ratio, P68036_C86” value (UBE2L3 C86 (P68036); in-vitro_ramos) was 1.5 and the “isoTOP-ABPP reactivity ratio, P48735_C308” value (IDH2 C308 (P48735); 500 μm, in-vitro_ramos_231) was 1.2. For the same compound, the “isoTOP-ABPP reactivity ratio, Q16822_C306” value (PCK2 C306 (Q16822); 500 μm, in-vitro_ramos_231) was 1.0 and the “isoTOP-ABPP reactivity ratio, Q9UPT9_C171” value (USP22 C171 (Q9UPT9); 500 μm, in-vitro_ramos_231) was 1.4.

For `COc1cc(NC(=O)CCl)cc(OC)c1` [compound 43], the “isoTOP-ABPP reactivity profile ratio, O14980_C34” value (XPO1 C34 (O14980); 500 μm, in-vitro_ramos_231) was 1.1, the “isoTOP-ABPP reactivity profile ratio, O75362_C286” value (ZNF217 C286 (O75362); in-vitro_ramos) was 1.2 and the “isoTOP-ABPP reactivity profile ratio, O75362_C286” value (ZNF217 C286 (O75362); in-vitro_ramos_231) was 1.9. The “isoTOP-ABPP reactivity profile ratio, P68036_C86” value (UBE2L3 C86 (P68036); in-vitro_ramos) was 1.7, the “isoTOP-ABPP reactivity profile ratio, P68036_C86” value (UBE2L3 C86 (P68036); in-vitro_ramos_231) was 1.1 and the “isoTOP-ABPP reactivity profile ratio, P48735_C308” value (IDH2 C308 (P48735); 500 μm, in-vitro_ramos_231) was 0.8. The “isoTOP-ABPP reactivity profile ratio, Q16822_C306” value (PCK2 C306 (Q16822); 500 μm, in-vitro_ramos_231) was 3.3 and the “isoTOP-ABPP reactivity profile ratio, Q9UPT9_C171” value (USP22 C171 (Q9UPT9); 500 μm, in-vitro_ramos) was 4.5.
